Assay results from paper PMC9203742 (Nature Communications, 2022).
Several values for one entry are separate records, joined by “and”; a condition that tells them apart may be missing. Equal values may be shown once.

Columns and labels:
Format in all cases: cell-based, mouse
[1] = test system: GFP-positive Purkinje cells infected with AAV-L7-mGlu1^WT; test: chemLTD recording in GFP-positive Purkinje cells, slices infected with AAV-L7-mGlu1^WT; details: AAV-L7-mGlu1WT; Time 37 min
[2] = test system: Purkinje cells in cerebellar slices from mGlu1^CBC/CBC mice; test: chemLTD recording (PF-EPSC) in Purkinje cells of acute cerebellar slices, mGlu1^CBC/CBC mice; details: for PF-EPSC amplitude relative to time 0: mGlu1CBC/CBC, individual cells
Experimental: Sagittal cerebellar slices were cut with a microslicer (Linear slicer Pro7; DOSAKA EM) in cutting solution buffer and then incubated in ACSF gassed with 5% CO2 and 95% O2 at room temperature.
Whole-cell patch-clamp recordings were made from visually identified Purkinje cells using a 60× water-immersion objective attached to an upright microscope (BX51WI, Olympus) at room temperature, as described previously. […] Picrotoxin (100 µM; Sigma) was always added to the saline to block inhibitory synaptic transmission.
To evoke EPSCs derived from CF (CF-EPSCs) and PF (PF-EPSCs) inputs onto Purkinje cells, square pulses were applied through a stimulating electrode placed on the granular layer and the molecular layer (50 µm away from the pial surface), respectively. The selective stimulation of CFs and PFs was confirmed by the paired-pulse depression (PPD) and paired-pulse facilitation (PPF) of EPSC amplitudes at a 50-ms interstimulus interval (ISI), respectively.
For the LTD sessions, PF-EPSCs were recorded successively at a frequency of 0.1 Hz from Purkinje cells clamped at –80 mV. After a stable PF-EPSC amplitude had been observed for at least 5 min, a conjunctive stimulation that consisted of 30 single PF stimuli together with a 200 ms depolarizing pulse from a holding potential of –60 to +20 mV was applied for LTD induction.
To chemically induce LTD (chemLTD), 50 µM (S)-3,5-dihydroxyphenylglycine (DHPG) or 1 µM Pd(sulfo-bpy) was applied for 10 min in a current-clamp mode. We often observed a transient decrease in PF-EPSC amplitude after the application of each drug probably because Purkinje cells under current-clamp conditions excite spontaneously to suppress presynaptic function through the retrograde signaling. Access resistances were monitored every 10 s by measuring the peak currents in response to 2 mV, 50-ms hyperpolarizing steps throughout the experiments; the measurements were discarded if the resistance changed by >20% of its original value. The normalized EPSC amplitude on the ordinate represents the EPSC amplitude for the average of six traces for 1 min divided by that of the average of six traces for 1 min immediately before the conjunctive stimulation or the drug application.

[3] = test system: GFP-positive Purkinje cells infected with AAV-L7-mGlu1^CBC; test: chemLTD recording in GFP-positive Purkinje cells, slices infected with AAV-L7-mGlu1^CBC; details: for PF-EPSC amplitude normalized to time 0, individual Purkinje cells / PF-EPSC amplitude normalized to time 0, mean of cells: AAV-L7-mGlu1CBC

For `Cc1ccnc(-c2cc(COCCCS(=O)(=O)[O-])ccn2)c1.[Cl][Pd][Cl].[Na+]` [Pd(sulfo-bpy)], the “PF-EPSC amplitude normalized to time 0, mean of cells” value [1] was 0.876, the “chemLTD: normalized PF-EPSC amplitude” value ([2]; 1 μM Pd(sulfo-bpy) for 10 min, t = 31−35 min) was 71 ± 5% and the “PF-EPSC amplitude relative to time 0” value ([2]; time 11 min) was 0.6364 and 0.5841 and 0.6893 and 0.9073 and 0.8328 and 0.7699 and 0.718 and 0.7562 and 0.9988 and 0.8349 and 0.5757. For the same compound, the “PF-EPSC amplitude relative to time 0” value ([2]; time 12 min) was 0.827 and 0.5867 and 0.7148 and 0.9371 and 0.7788 and 0.6794 and 0.7449 and 0.7226 and 1.01 and 0.7931 and 0.6087, the “PF-EPSC amplitude relative to time 0” value ([2]; time 13 min) was 0.8172 and 0.6851 and 0.7171 and 1.091 and 0.7809 and 0.6502 and 0.6746 and 0.5919 and 1.019 and 0.8421 and 0.5537 and the “PF-EPSC amplitude relative to time 0” value ([2]; time 14 min) was 0.7882 and 0.6733 and 0.6788 and 1.041 and 0.7381 and 0.6557 and 0.5543 and 0.7541 and 0.9808 and 0.752 and 0.5358. For the same compound, the “PF-EPSC amplitude relative to time 0” value ([2]; time 15 min) was 0.7548 and 0.7484 and 0.6382 and 0.9601 and 0.7893 and 0.6974 and 0.5323 and 0.7206 and 0.9958 and 0.7333 and 0.563, the “PF-EPSC amplitude relative to time 0” value ([2]; time 16 min) was 0.7642 and 0.6145 and 0.7007 and 0.8597 and 0.792 and 0.6967 and 0.6481 and 0.669 and 0.9606 and 0.6776 and 0.562 and the “PF-EPSC amplitude relative to time 0” value ([2]; time 17 min) was 0.7633 and 0.6552 and 0.685 and 0.991 and 0.7793 and 0.8388 and 0.6612 and 0.7158 and 1.026 and 0.669 and 0.5661. The “PF-EPSC amplitude relative to time 0” value ([2]; time 18 min) was 0.7518 and 0.6433 and 0.6556 and 0.9807 and 0.8623 and 0.726 and 0.6303 and 0.6396 and 0.9248 and 0.6931 and 0.5685, the “PF-EPSC amplitude relative to time 0” value ([2]; time 19 min) was 0.7866 and 0.7223 and 0.6298 and 1.039 and 0.7923 and 0.7732 and 0.6413 and 0.6754 and 1.015 and 0.7024 and 0.4513 and the “PF-EPSC amplitude relative to time 0” value ([2]; time 20 min) was 0.7361. For the same compound, the “chemLTD: normalized PF-EPSC amplitude” value ([3]; 1 μM Pd(sulfo-bpy), t = 31−35 min) was 66 ± 5%, the “PF-EPSC amplitude normalized to time 0, individual Purkinje cells” value ([3]; Time 11 min) was 0.7232 and 0.9829 and 0.3767 and 0.7388 and 0.7918 and 0.8459 and 0.9915 and the “PF-EPSC amplitude normalized to time 0, mean of cells” value ([3]; Time 11 min) was 0.7787. For the same compound, the “PF-EPSC amplitude normalized to time 0, individual Purkinje cells” value ([3]; Time 12 min) was 0.6425 and 0.801 and 0.5915 and 0.6003 and 0.6904 and 0.8371 and 0.8565, the “PF-EPSC amplitude normalized to time 0, mean of cells” value ([3]; Time 12 min) was 0.717 and the “PF-EPSC amplitude normalized to time 0, individual Purkinje cells” value ([3]; Time 13 min) was 0.6471 and 0.7787 and 0.7013 and 0.6809 and 0.7803 and 0.6727 and 0.8538. For the same compound, the “PF-EPSC amplitude normalized to time 0, mean of cells” value ([3]; Time 13 min) was 0.7307, the “PF-EPSC amplitude normalized to time 0, individual Purkinje cells” value ([3]; Time 14 min) was 0.6499 and 0.8303 and 0.7622 and 0.6113 and 0.7456 and 0.6953 and 0.8046 and the “PF-EPSC amplitude normalized to time 0, mean of cells” value ([3]; Time 14 min) was 0.7285. For the same compound, the “PF-EPSC amplitude normalized to time 0, individual Purkinje cells” value ([3]; Time 15 min) was 0.6409 and 0.6767 and 0.8117 and 0.6223 and 0.7031 and 0.7146 and 0.8496, the “PF-EPSC amplitude normalized to time 0, mean of cells” value ([3]; Time 15 min) was 0.717 and the “PF-EPSC amplitude normalized to time 0, individual Purkinje cells” value ([3]; Time 16 min) was 0.6376 and 0.7978 and 1.028 and 0.6558 and 0.8297 and 0.5765 and 0.8295. The “PF-EPSC amplitude normalized to time 0, mean of cells” value ([3]; Time 16 min) was 0.765, the “PF-EPSC amplitude normalized to time 0, individual Purkinje cells” value ([3]; Time 17 min) was 0.5747 and 0.6569 and 0.9755 and 0.6298 and 0.8796 and 0.5758 and 0.8309 and the “PF-EPSC amplitude normalized to time 0, mean of cells” value ([3]; Time 17 min) was 0.7319. For the same compound, the “PF-EPSC amplitude normalized to time 0, individual Purkinje cells” value ([3]; Time 18 min) was 0.6181 and 0.7827 and 0.9415 and 0.633 and 0.8865 and 0.5391 and 0.791, the “PF-EPSC amplitude normalized to time 0, mean of cells” value ([3]; Time 18 min) was 0.7417 and the “PF-EPSC amplitude normalized to time 0, individual Purkinje cells” value ([3]; Time 19 min) was 0.6525 and 0.7374 and 0.8732 and 0.5834 and 0.9022 and 0.5765 and 0.7947. For the same compound, the “PF-EPSC amplitude normalized to time 0, mean of cells” value ([3]; Time 19 min) was 0.7314, the “PF-EPSC amplitude normalized to time 0, individual Purkinje cells” value ([3]; Time 20 min) was 0.6393 and 0.699 and 0.8317 and 0.5962 and 0.9401 and 0.5543 and 0.7516 and the “PF-EPSC amplitude normalized to time 0, mean of cells” value ([3]; Time 20 min) was 0.716. For the same compound, the “PF-EPSC amplitude normalized to time 0, individual Purkinje cells” value ([3]; Time 21 min) was 0.6574 and 0.7237 and 1.073 and 0.5004 and 0.9213 and 0.5453 and 0.8183, the “PF-EPSC amplitude normalized to time 0, mean of cells” value ([3]; Time 21 min) was 0.7484 and the “PF-EPSC amplitude normalized to time 0, individual Purkinje cells” value ([3]; Time 22 min) was 0.698 and 0.6854 and 0.7706 and 0.5876 and 1.007 and 0.5965 and 0.7681. The “PF-EPSC amplitude normalized to time 0, mean of cells” value ([3]; Time 22 min) was 0.7305, the “PF-EPSC amplitude normalized to time 0, individual Purkinje cells” value ([3]; Time 23 min) was 0.6936 and 0.7382 and 0.9273 and 0.5926 and 0.9601 and 0.5241 and 0.7745 and the “PF-EPSC amplitude normalized to time 0, mean of cells” value ([3]; Time 23 min) was 0.7443. The “PF-EPSC amplitude normalized to time 0, individual Purkinje cells” value ([3]; Time 24 min) was 0.6834 and 0.653 and 0.9054 and 0.6969 and 0.9426 and 0.569 and 0.7678, the “PF-EPSC amplitude normalized to time 0, mean of cells” value ([3]; Time 24 min) was 0.7455 and the “PF-EPSC amplitude normalized to time 0, individual Purkinje cells” value ([3]; Time 25 min) was 0.6421 and 0.6906. The “PF-EPSC amplitude normalized to time 0, mean of cells” value ([3]; Time 25 min) was 0.7344, the “PF-EPSC amplitude normalized to time 0, mean of cells” value ([3]; Time 26 min) was 0.7041 and the “PF-EPSC amplitude normalized to time 0, mean of cells” value ([3]; Time 27 min) was 0.6979. The “PF-EPSC amplitude normalized to time 0, mean of cells” value ([3]; Time 28 min) was 0.6908, the “PF-EPSC amplitude normalized to time 0, mean of cells” value ([3]; Time 29 min) was 0.7115 and the “PF-EPSC amplitude normalized to time 0, mean of cells” value ([3]; Time 30 min) was 0.7. The “PF-EPSC amplitude normalized to time 0, mean of cells” value ([3]; Time 31 min) was 0.6852, the “PF-EPSC amplitude normalized to time 0, mean of cells” value ([3]; Time 32 min) was 0.6868 and the “PF-EPSC amplitude normalized to time 0, mean of cells” value ([3]; Time 33 min) was 0.6788. For the same compound, the “PF-EPSC amplitude normalized to time 0, mean of cells” value ([3]; Time 34 min) was 0.6319 and the “PF-EPSC amplitude normalized to time 0, mean of cells” value ([3]; Time 35 min) was 0.6255.
